Test results reported in patent publication EP3494999A1, “PSMA LIGANDS FOR IMAGING AND ENDORADIOTHERAPY” (Technische Universität München, priority 2017, dated 2019).

Assays:
human serum albumin [1] = molecular target: T1, human serum albumin (Homo sapiens, UniProt P02768); assay: Literature HSA binding of the reference substances used to calibrate the HSA column; details: logarithmic K of human serum albumin binding, from the literature HSA%
Experimental: The mobile phase was freshly prepared for each experiment and only used for one day. The column was kept at room temperature and each run was stopped after detection of the signal to reduce the acquisition time. All substances were dissolved in a 0.5mg/ml concentration in 50% 2-Propanol and 50% 50mM pH 6.9 ammonium acetate buffer. […] All nine reference substances were injected consecutively to establish a non-linear regression with OriginPro 2016G. […] Table 1: Reference substances used for the calibration of the HSA-column.

human serum albumin [2] = molecular target: T1, human serum albumin; details: literature value of human serum albumin binding (Valko et al. or Yamazaki et al.); cited from earlier work

T1 sequence (P02768 25-609): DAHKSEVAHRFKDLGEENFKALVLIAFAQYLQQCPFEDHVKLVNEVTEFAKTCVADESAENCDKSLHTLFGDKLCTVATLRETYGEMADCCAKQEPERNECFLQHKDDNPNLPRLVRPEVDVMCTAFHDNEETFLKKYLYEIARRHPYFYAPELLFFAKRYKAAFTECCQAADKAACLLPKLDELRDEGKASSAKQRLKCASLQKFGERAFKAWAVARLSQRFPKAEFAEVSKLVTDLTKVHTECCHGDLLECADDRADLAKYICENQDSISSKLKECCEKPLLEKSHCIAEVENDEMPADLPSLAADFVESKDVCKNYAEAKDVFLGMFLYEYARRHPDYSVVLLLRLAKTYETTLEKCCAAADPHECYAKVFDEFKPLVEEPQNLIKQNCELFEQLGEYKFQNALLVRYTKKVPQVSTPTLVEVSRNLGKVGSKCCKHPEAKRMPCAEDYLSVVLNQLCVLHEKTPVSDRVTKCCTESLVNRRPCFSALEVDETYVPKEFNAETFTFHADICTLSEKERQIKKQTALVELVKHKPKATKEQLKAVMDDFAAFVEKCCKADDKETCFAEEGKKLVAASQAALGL

Compound	Log K HSA (human serum albumin [1])	Lit. HSA% (human serum albumin [2])
COc1ccc(Cl)cc1C(=O)NCCc1ccc(S(=O)(=O)NC(=O)NC2CCCCC2)cc1 [Glibenclamide]	1.69	99.00%
Oc1ccccc1 [Phenol]	-0.59	20.69%
